Reference: US6534480B2, “Compositions for increasing energy in vivo” (Bioenergy Inc., priority 1999, dated 2003)

Assays:
[1] = tested on: adenine salvage pathway; assay: Adenine salvage (formation of ATP) in perfused resting rat plantaris muscle, ribose dose response; type: in vivo, Sprague-Dawley rats; settings: for salvage of adenine (formation of ATP), Observed: 30 minutes
Experimental: It has been theorized but not objectively shown that ribose, via PRPP synthesis, increases the rate of ATP synthesis via the nucleotide salvage pathway. […] The muscle was perfused with reconstituted blood medium at ˜40 ml/min, providing tissue perfusion of approximately 0.65 ml/min. Varying concentrations of D-ribose were added to the perfusate to bring the concentration to 0.156 mM, 0.5 mM, 1.58 mM, 5.0 mM and 15.0 mM. The muscle was perfused for 30 minutes. A minimum of two rats was used for analysis at each dose of ribose tested. Following perfusion, muscle sections were quickly dissected from the limb and freeze-clamped with aluminum tongs chilled in liquid nitrogen. Muscle sections were lyophilized and reconstituted in distilled water for subsequent-separation of adenine nucleotides by reverse-phase high pressure liquid chromatography. Results are expressed as salvage of adenine (i.e., formation of ATP) in nanomoles salvaged per gram wet weight of muscle per hour (nM/gm/hr).

[2] = tested on: ATP; assay: ATP in vastis lateralis muscle biopsies (Ribose Athlete Study); type: in vivo, human; settings: for ATP Recovery % of Pre: 48 hours recovery vs initial level
Experimental: Four healthy, fit subjects in the age range 24 to 26 years of age were tested. The group was selected to be homogeneous regarding fitness level, gender and mean age with no known metabolic, neuronal, endocrine or cardiopulmonary disorders. All were capable of or had experience with cycling. The study protocol included four phases: (1) an initial baseline phase consisting of no exercise session; (2) a loading phase including three days of administration of either D-ribose or placebo (glucose) three times per day; (3) a training phase of three days employing exercise sessions characterized by serial (N=6) bouts of short (10 second) high-intensity cycle sprints at 7% body mass resistance with 50 second rest periods between sprints twice per day (morning and afternoon), and (4) a recovery phase for a period of 48 hours after the final training session. FIG. 1 is a diagram of a single cycle sprint bout. Muscle biopsies (MB) were performed on the […] lateralis muscle using both legs in order to evenly distribute and minimize sampling and possible muscle soreness per leg due to the biopsy itself. The first MB was collected at rest at the beginning of the study to establish a baseline and immediately after the first training-session of day 0 or the first phase. During the loading phase, no MB was taken. Muscle Biposies were taken following the final training session and after 48 hours of recovery. Two subjects were randomly selected for inclusion into the placebo or ribose group. Ribose or glucose was administered orally in a 250 ml iso-osmotic solution containing 10.0 grams of either ribose or placebo three times per day for three days preceding training (loading phase) and for three days during training (training phase). One-half liter isotonic electrolyte solution was given immediately post exercise and again 30 minutes later to avoid dehydration. The concentration of the following analytes was determined in the MB samples: ATP, ADP, AMP, IMP (inosine monophosphate), TAN (total adenine nucleotides), creatine phosphate and creatine.

[3] = Sprint power output and well-being in normal untrained subjects (planned); type: in vivo, human; settings: 5 grams of D-ribose in 200 ml. of water after each sprint bout
Excerpt: D-ribose, given immediately before and during exercise, can provide a benefit to those subjects who have not been previously trained. Four healthy, normal male volunteers will be tested for sprint power output on an exercycle, as for Example 2 above. Each subject will serve as their own control. Between the sprint bouts, the subjects will cycle slowly and continuously. Total test time will be one hour, with four sprint bouts during the test. Following the initial baseline test and following each sprint bout, the subjects will be given 5 grams of D-ribose in 200 ml. of water or a similar tasting placebo (glucose). Sprint power output will be tested 15 minutes after each ingesting of the test solutions. Each subject will undergo two sessions, one week apart, one with ribose and one with placebo, in randomized order. The placebo will be sweetened with glucose in order to be indistinguishable from the ribose solution.

[4] = Exercise induced angina, single patient with coronary artery disease; type: in vivo, human
Excerpt: A patient with a history of coronary artery disease, status post triple coronary artery bypass, experienced exercise induced angina. Their present medications are: enalapril (an angiotensin converting enzyme inhibitor), carvedilol (a β blocking agent), nitroglycerine patch and nitroglycerine tablets sublingual as needed. […] The patient performed poorly on two stress tests. Their exercise regimen consisted of a daily walk. Due to the development of angina, the patient was able to walk less than one mile per day, at which point they took sublingual nitroglycerine. The patient was given oral D-ribose dissolved in about 250 cc. of water. Over a six-month period, the patient received intermittent doses of 5-10 grams per day of D-ribose. […] When the ribose was discontinued, their pre-ribose, anginal-inducing exercise state recurred, which necessitated the use of supplemental oral nitroglycerine.

[5] = tested on: ATP; settings: heart recovering from ischemia, intravenous perfusion; cited from earlier work
[6] = oral, humans; cited from earlier work
[7] = cited from earlier work

With `O=C[C@H](O)[C@H](O)[C@H](O)CO` [Ribose, D-ribose] the “adenine salvage relative to zero mM ribose” value ([1]; 0.158 mM ribose) was “doubles”, the “salvage of adenine, Saturation Kinetics with Base” value (shortened to “salvage of adenine … with Base”) ([1]; 0.158 mM ribose) was 85.82 nM/gm/hr and the “salvage of adenine (formation of ATP), Observed” value (from here on “salvage of adenine … Observed”) ([1]; 0.158 mM ribose in perfusate) was 113.0 nM/gm/hr. For the same compound, the “salvage of adenine … with Base” value ([1]; 0.500 mM ribose) was 118.68 nM/gm/hr, the “salvage of adenine … Observed” value ([1]; 0.500 mM ribose in perfusate) was 110.0 nM/gm/hr and the “salvage of adenine … with Base” value ([1]; 1.000 mM ribose) was 154.12 nM/gm/hr. For the same compound, the “salvage of adenine … with Base” value ([1]; 1.580 mM ribose) was 183.51 nM/gm/hr, the “salvage of adenine … Observed” value ([1]; 1.580 mM ribose in perfusate) was 188.5 nM/gm/hr and the “salvage of adenine … with Base” value ([1]; 2.000 mM ribose) was 199.74 nM/gm/hr. The “salvage of adenine … with Base” value ([1]; 2.500 mM ribose) was 215.29 nM/gm/hr, the “salvage of adenine … with Base” value ([1]; 3.000 mM ribose) was 227.85 nM/gm/hr and the “salvage of adenine … with Base” value ([1]; 5.000 mM ribose) was 260.68 nM/gm/hr. For the same compound, the “salvage of adenine … Observed” value ([1]; 5.000 mM ribose in perfusate) was 250.0 nM/gm/hr, the “salvage of adenine … Observed” value ([1]; 5.000 mM ribose in perfusate, listed as ribose) was 250 nM/gm/hr and the “salvage of adenine … with Base” value ([1]; 15.000 mM ribose) was 310.37 nM/gm/hr. The “salvage of adenine … Observed” value ([1]; 15.000 mM ribose in perfusate) was 315.5 nM/gm/hr, the “ATP Recovery % of Pre” value [2] was 82% and the “ATP Recovery % of Pre” value ([2]; listed as ribose) was 82%. The “ATP Change Post-Rec” value ([2]; in vivo) was 6.90 mmol/kg dw, the “ATP Change Pre-Post” value ([2]; in vivo) was −11.43 mmol/kg dw and the “Mean ATP Values, Recovery” value ([2]; muscle biopsy after 48 hours of recovery) was 20.80 mmol/kg dw. For the same compound, the “Mean ATP Values, Post” value ([2]; muscle biopsy following the final training session) was 13.90 mmol/kg dw, the “Mean ATP Values, Pre” value ([2]; muscle biopsy, after three days ribose loading, before training) was 25.33 mmol/kg dw and the “subjective feeling of well being” value [3] was “subjectively higher feeling of well being”. The “sprint power output after ribose vs placebo” value ([3]; sustained mild exercise) was “higher power output”, the “patient's subjective evaluation of the ribose treatment” value ([4]; oral D-ribose 5-10 grams per day) was “much less angina pain” and the “exercise tolerance (daily walk) without nitroglycerine” value ([4]; oral D-ribose 5-10 grams per day intermittent over six months, before: less than one mile per day) was “two miles per day”. For the same compound, the “recovery of ATP levels” value [5] was “enhanced”, the “treatment of cardiac insufficiency and hypovolemic shock” value [6] was “effective” and the “symptoms of MAD-deficient patients” value ([7]; MAD-deficient patients) was “relieved”. For the same compound, the “effect in normal volunteers” value ([7]; normal volunteers) was “no beneficial effect”.
